Counter-ions that a name gives are not always drawn. Like-named read-outs stand apart in the source and are kept apart here.
Tests used:
HTT mRNA = assay: Splicing RT-qPCR assay, HTT canonical (CJ) and alternative (AJ) junction mRNA; type: cell-based, human; details: Homo sapiens; for IC50: canonical junction mRNA; for AC50: alternative junction mRNA, read-out: HTT AJ (AC50, increase in AJ mRNA)
Method: (§1) Compounds described herein were used to modulate RNA transcript abundance in cells. The expression of a target mRNA was measured by detecting the formation of an exon-exon junction in the canonical transcript (CJ). A compound mediated exon-inclusion event was detected by observing an increase in formation of a new junction with an alternative exon (AJ). Real-time qPCR assays were used to detect these splicing switches and interrogate the potency of various compounds towards different target genes. A high-throughput real time quantitative PCR (RT-qPCR) assay was developed to measure these two isoforms of the mRNA (CJ and AJ) for exemplary genes, such as HTT, SMN2, and MYB, together with a control housekeeping gene, GAPDH or GUSB or PPIA, used for normalization. Briefly, the A673 or K562 cell line was treated with various compounds described herein (e.g., compounds of Formula (D). After treatment, the levels of the HTT, MYB, or SMN2 mRNA targets were determined from each sample of cell lysate by cDNA synthesis followed by qPCR.
(§2) • Cells-to-CT 1-step kit: ThermoFisher A25602, Cells-to-CT lysis reagent: ThermoFisher 4391851C, TaqMan™ Fast Virus 1-Step Master Mix: ThermoFisher 4444436 • GAPDH: VIC-PL, ThermoFisher 4326317E (Assay: Hs99999905_m1)—used for K562/suspension cell lines • GUSB: VIC-PL, ThermoFisher 4326320E (Assay: Hs99999908_m1)—used for K562/suspension cell lines • PPIA: VIC-PL, ThermoFisher 4326316E (Assay: Hs99999904_m1)—used for A673/adherent cell lines
(§3) The A673 cell line was cultured in DMEM with 10% FBS. Cells were diluted with full growth media and plated in a 96-well plate (15,000 cells in 100 ul media per well). The plate was incubated at 37° C. with 5% CO2 for 24 hours to allow cells to adhere. An 11-point 3-fold serial dilution of the compounds was made in DMSO then diluted in media in an intermediate plate. Compounds were transferred from the intermediate plate to the cell plate with the top dose at a final concentration of 10 uM in the well. Final DMSO concentration was kept at or below 0.25%. The cell plate was returned to the incubator at 37° C. with 5% CO2 for an additional 24 hours.
(§4) The K562 cell line was cultured in IMDM with 10% FBS. For K562, cells were diluted with full growth media and plated in either a 96-well plate (50,000 cells in 50 uL media per well) or a 384-well plate (8,000-40,000 cells in 45 uL media per well). An 11-point 3-fold serial dilution of the compounds were made in DMSO then diluted in media in an intermediate plate. Compound was transferred from the intermediate plate to the cell plate with the top dose at a final concentration of 10 uM in the well. Final DMSO concentration was kept at or below 0.25%. Final volume was 100 uL for 96-well plate and 50 uL for 384-well plate. The cell plate was then placed in an incubator at 37° C. with 5% CO2 for 24 hours.
(§5) The cells were then gently washed with 50 uL-100 uL cold PBS before proceeding to addition of lysis buffer. 30 uL-50 μL of room temperature lysis buffer with DNAse I (and optionally RNAsin) was added to each well. Cells were shaken/mixed thoroughly at room temperature for 5-10 minutes for lysis to take place and then 3 uL-5 μL of room temperature stop solution was added and wells were shaken/mixed again. After 2-5 minutes, the cell lysate plate was transferred to ice for RT-qPCR reaction setup. The lysates could also be frozen at −80° C. for later use.
(§6) In some cases, a direct lysis buffer was used. An appropriate volume of 3× lysis buffer (10 mM Tris, 150 mM NaCl, 1.5%-2.5% Igepal and 0.1-1 U/uL RNAsin, pH 7.4) was directly added to either K562 or A673 cells in media and mixed by pipetting 3 times. The plates were then incubated at room temperature with shaking/rocking for 20-50 minutes to allow for lysis to take place. After this time, the cell lysate plate was transferred to ice to set up for the RT-qPCR reactions. The lysates could also be frozen at −80° C. for later use. […]

MYB mRNA = assay: Splicing RT-qPCR assay, MYB canonical (CJ) and alternative (AJ) junction mRNA; type: cell-based, human; details: Homo sapiens; for IC50: canonical junction mRNA; for AC50: alternative junction mRNA, read-out: MYB AJ (AC50, increase in AJ mRNA)
Method: as §1, §2, §3, §4, §5, §6

Target C mRNA = assay: Splicing RT-qPCR panel, Target C canonical junction (CJ) mRNA; type: cell-based, human; details: Homo sapiens, read-out: Target C CJ (decrease in CJ mRNA levels, IC50)
Method: as §1, §3, §4, §5
In some cases, a direct lysis buffer was used. An appropriate volume of 3× lysis buffer (10 mM Tris, 150 mM NaCl, 1.5%-2.5% Igepal and 0.1-1 U/uL RNAsin, pH 7.4) was directly added to either K562 or A673 cells in media and mixed by pipetting 3 times. The plates were then incubated at room temperature with shaking/rocking for 20-50 minutes to allow for lysis to take place. After this time, the cell lysate plate was transferred to ice to set up for the RT-qPCR reactions. The lysates could also be frozen at −80° C. for later use.
To set up 10 uL RT-qPCR reactions, cell lysates were transferred to 384-well qPCR plates containing the master mix according to the table below. The plates were sealed, gently vortexed, and spun down before the run. The volumes were adjusted accordingly in some instances where the reaction was carried in 20 μL. The table below summarizes the components of the RT-qPCR reactions:
The RT-qPCR reaction was performed using a QuantStudio (ThermoFisher) under the following fast cycling conditions. […]

K562 cells = assay: Cell viability, Cell Titer Glo 2.0 assay, K562; details: 72 hours
[1] = 24 h, RT-qPCR, A673 or K562 cells, 24 hours treatment, read-out: HTT CJ (IC50, decrease in CJ mRNA)
[2] = qPCR panel, read-out: HTT CJ (decrease in CJ mRNA levels, IC50)
[3] = RT-qPCR, A673 or K562 cells, 24 hours treatment
[4] = qPCR panel, read-out: MYB CJ (decrease in CJ mRNA levels, IC50)
[5] = RT-qPCR, A673 or K562 cells, 24 hours treatment, read-out: MYB CJ (IC50, decrease in CJ mRNA)

SMILES	IC50 (HTT mRNA; [1])	IC50 (HTT mRNA; [2])	AC50 (HTT mRNA; [3])	IC50 (MYB mRNA; [4])	AC50 (MYB mRNA; [3])	IC50 (MYB mRNA; [5])	IC50 (Target C mRNA)	Effect on Cell Viability, K562 (K562 cells)
Cc1c(N2C[C@H](C)N[C@@H](C)C2)cnc2nc(-c3cc4cn(C)nc4c(C)c3O)ccc12 [Compound 395, 5-{6-[(3S,5S)-3,5-dimethylpiperazin-1-yl]-5-methyl-1,8-naphthyridin-2-yl}-2,7-dimethylindazol-6-ol]	100 to 1000 nM	100 to 1000 nM	1000 to 10000 nM	< 100 nM	100 to 1000 nM	< 100 nM	1000 to 10000 nM	B (100-1000 nM)
Cc1c(O)c(-c2cc(C3CC3)c3cc(N4C[C@@H](C)N[C@@H](C)C4)cnc3n2)cc2cn(C)nc12 [Compound 374, 5-{4-cyclopropyl-6-[(3R,5S)-3,5-dimethylpiperazin-1-yl]-1,8-naphthyridin-2-yl}-2,7-dimethylindazol-6-ol]	1000 to 10000 nM	1000 to 10000 nM	1000 to 10000 nM	100 to 1000 nM	100 to 1000 nM	100 to 1000 nM	> 10000 nM	C (1000-9999 nM)
Cn1cc2cc(-c3cc(Cl)c4cc(N5CC[C@@H](NCCF)C5)cnc4n3)c(O)cc2n1 [Compound 387, 5-{4-chloro-6-[(3R)-3-[(2-fluoroethyl)amino]pyrrolidin-1-yl]-1,8-naphthyridin-2-yl}-2-methylindazol-6-ol hydrochloride]	100 to 1000 nM	100 to 1000 nM	100 to 1000 nM	< 100 nM	< 100 nM	< 100 nM	1000 to 10000 nM	B (100-1000 nM)
C[C@H]1CN(c2cnc3nc(-c4cc(F)c5nn(C)cc5c4)ccc3c2Cl)CCN1 [Compound 385, 5-chloro-2-(7-fluoro-2-methylindazol-5-yl)-6-[(3S)-3-methylpiperazin-1-yl]-1,8-naphthyridine]	> 10000 nM	> 10000 nM	1000 to 10000 nM	< 100 nM	100 to 1000 nM	< 100 nM	1000 to 10000 nM	A (<100 nM)
Cc1cn2nc(-c3cc(Cl)c4cc(N5CCNC6(CC6)C5)cnc4n3)cc(C)c2n1 [Compound 383]	1000 to 10000 nM	1000 to 10000 nM	1000 to 10000 nM	100 to 1000 nM	100 to 1000 nM	100 to 1000 nM	1000 to 10000 nM	C (1000-9999 nM)
Cc1c(O)c(-c2cc(C#N)c3cc(N4C[C@H](C)N[C@@H](C)C4)cnc3n2)cc2cn(C)nc12 [Compound 384, 6-[(3S,5S)-3,5-dimethylpiperazin-1-yl]-2-(6-hydroxy-2,7-dimethylindazol-5-yl)-1,8-naphthyridine-4-carbonitrile]	100 to 1000 nM	100 to 1000 nM	100 to 1000 nM	< 100 nM	< 100 nM	< 100 nM	1000 to 10000 nM	A (<100 nM)
C[C@@H]1CN(c2cnc3nc(-c4cc5cn(C)nc5cc4O)cc(Cl)c3c2)CC2(CC2)N1 [Compound 378]	1000 to 10000 nM	1000 to 10000 nM	> 10000 nM	100 to 1000 nM	100 to 1000 nM	100 to 1000 nM	> 10000 nM	B (100-1000 nM)
Cc1c(O)c(-c2cc(Cl)c3cc(N4C[C@@H]5CCCN(C)[C@@H]5C4)cnc3n2)cc2cn(C)nc12 [Compound 375]	> 10000 nM	> 10000 nM	> 10000 nM	100 to 1000 nM	100 to 1000 nM	100 to 1000 nM	> 10000 nM	B (100-1000 nM)
Cn1cc2cc(-c3cc(Cl)c4cc(N5CC[C@@H](N6CCC6)C5)cnc4n3)c(O)cc2n1 [Compound 386]	1000 to 10000 nM	1000 to 10000 nM	1000 to 10000 nM	100 to 1000 nM	100 to 1000 nM	100 to 1000 nM	> 10000 nM	B (100-1000 nM)
Cc1c(O)c(-c2cc(Cl)c3cc(N4C[C@H](C)N[C@@H](C)C4)cnc3n2)cc2cn(C)nc12 [Compound 232, 5-{4-chloro-6-[(3S,5S)-3,5-dimethylpiperazin-1-yl]-1,8-naphthyridin-2-yl}-2,7-dimethylindazol-6-ol]	< 100 nM	< 100 nM	< 100 nM	< 100 nM	< 100 nM	< 100 nM	100 to 1000 nM	A (<100 nM)
Cc1cn2nc(-c3ccc4c(Cl)c(N5C[C@@H](C)N[C@@H](C)C5)cnc4n3)cc(C)c2n1 [Compound 392]	1000 to 10000 nM	1000 to 10000 nM	1000 to 10000 nM	100 to 1000 nM	100 to 1000 nM	100 to 1000 nM	1000 to 10000 nM	B (100-1000 nM)
Cc1c(O)c(-c2cc(C3CC3)c3cc(N4C[C@H](C)N[C@@H](C)C4)cnc3n2)cc2cn(C)nc12 [Compound 377, 5-{4-cyclopropyl-6-[(3S,5S)-3,5-dimethylpiperazin-1-yl]-1,8-naphthyridin-2-yl}-2,7-dimethylindazol-6-ol]	100 to 1000 nM	100 to 1000 nM	100 to 1000 nM	< 100 nM	< 100 nM	< 100 nM	1000 to 10000 nM	B (100-1000 nM)
C[C@@H]1CN(c2cnc3nc(-c4cc(F)c5nn(C)cc5c4)ccc3c2Cl)C[C@H](C)N1 [Compound 391]	> 10000 nM	> 10000 nM	1000 to 10000 nM	100 to 1000 nM	100 to 1000 nM	100 to 1000 nM	1000 to 10000 nM	B (100-1000 nM)
Cn1cc2cc(-c3cc(Cl)c4cc(N5CCNC6(CC6)C5)cnc4n3)cc(F)c2n1 [Compound 382]	1000 to 10000 nM	1000 to 10000 nM	> 10000 nM	100 to 1000 nM	100 to 1000 nM	100 to 1000 nM	> 10000 nM	C (1000-9999 nM)

Source: patent US20250326748A1, “COMPOUNDS AND METHODS FOR MODULATING SPLICING” (REMIX THERAPEUTICS INC., priority 2022, published 2025)
